Assay results reported in patent publication US20240158392A1 (Janssen Biotech, Inc., priority 2021, published 2024).
Read-outs that look alike come from different tables or passages of the source.

Target: SIK2 (Homo sapiens, UniProt Q9H0K1)
Assay: SIK2 Enzymatic Assay High Version 2 (High ATP)
Type: biochemical
Procedure, shortened: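 At room temperature, enzyme (6 nM, 2× final) was preincubated with compound for 30 min, then 6 mM ATP and 400 μM HDAC5tide (both 2× final) were added for 2 h. ADP formed was measured by ADP-Glo Max (2 h reagent, 1 h detection) using luminescence.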

[1] = enzyme 6 nM, 6 mM ATP and 400 μM HDAC5tide (each 2× final concentration), 30 minutes pre-incubation, 2 hours, ADP-Glo Max luminescence, read-out: SIK2 high ATP IC50 (μM) (Test Example 2)

Sequence of SIK2 (Q9H0K1 whole entry, species assumed): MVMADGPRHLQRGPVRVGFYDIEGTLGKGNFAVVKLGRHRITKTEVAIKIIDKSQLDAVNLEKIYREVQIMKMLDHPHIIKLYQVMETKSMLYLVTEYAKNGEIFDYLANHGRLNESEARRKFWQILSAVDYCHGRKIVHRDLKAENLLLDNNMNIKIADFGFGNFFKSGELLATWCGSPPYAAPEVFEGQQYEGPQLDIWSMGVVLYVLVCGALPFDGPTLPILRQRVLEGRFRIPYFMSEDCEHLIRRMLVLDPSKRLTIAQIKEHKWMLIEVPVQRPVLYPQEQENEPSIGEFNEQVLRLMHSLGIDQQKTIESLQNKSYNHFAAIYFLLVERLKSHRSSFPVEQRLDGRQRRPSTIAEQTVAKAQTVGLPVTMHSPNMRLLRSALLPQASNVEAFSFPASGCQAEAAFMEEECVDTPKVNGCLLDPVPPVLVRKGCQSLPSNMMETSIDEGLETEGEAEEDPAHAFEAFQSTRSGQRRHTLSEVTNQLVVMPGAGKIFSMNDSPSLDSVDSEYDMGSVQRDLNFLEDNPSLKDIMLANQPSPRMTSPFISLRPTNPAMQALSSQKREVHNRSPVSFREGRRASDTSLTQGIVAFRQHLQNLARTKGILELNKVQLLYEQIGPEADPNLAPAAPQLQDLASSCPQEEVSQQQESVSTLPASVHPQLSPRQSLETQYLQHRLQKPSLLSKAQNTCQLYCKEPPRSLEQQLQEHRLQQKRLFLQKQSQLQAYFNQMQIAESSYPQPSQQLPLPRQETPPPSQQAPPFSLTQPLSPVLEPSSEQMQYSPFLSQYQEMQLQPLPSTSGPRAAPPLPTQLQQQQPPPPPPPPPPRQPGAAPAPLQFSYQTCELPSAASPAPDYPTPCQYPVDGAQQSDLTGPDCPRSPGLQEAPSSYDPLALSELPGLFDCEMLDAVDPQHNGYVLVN

SMILES | IC50 [1] [µM] | IC50 [µM]
Cc1cc(-c2ccn3nc(Nc4cc(C)nc(C)n4)cc3c2)c(OCC(C)(C)NS(C)(=O)=O)cn1 [Example 361, N-[2-[[4-[2-[(2,6-dimethylpyrimidin-4-yl)amino]pyrazolo[1,5-a]pyridin-5-yl]-6-methyl-3-pyridyl]oxy]-1,1-dimethyl-ethyl]methanesulfonamide] | 0.00703 | 
CC(C)(C#N)COc1cnc(OCC(F)F)cc1-c1ccn2nc(Nc3cnccn3)cc2c1 [Example 689, 3-[[6-(2,2-difluoroethoxy)-4-[2-(pyrazin-2-ylamino)pyrazolo[1,5-a]pyridin-5-yl]-3-pyridyl]oxy]-2,2-dimethyl-propanenitrile] | 0.00136 | 
Cc1cc(-c2ccn3nc(Nc4ncc(F)cn4)cc3c2)c(O[C@H]2C[C@H]3COC[C@@H](C2)N3)cn1 [Example 404, N-(5-fluoropyrimidin-2-yl)-5-[2-methyl-5-[[(1S,5R,7s)-3-oxa-9-azabicyclo[3.3.1]nonan-7-yl]oxy]-4-pyridyl]pyrazolo[1,5-a]pyridin-2-amine] |  | 0.058
Cc1cc(-c2ccn3nc(NC(=O)C4CC4)cc3c2)c(O[C@@H]2CN(C)[C@@H]2C)cn1 (relative stereo) [Example 455, *R, *R—N-[5-[5-(1,2-dimethylazetidin-3-yl)oxy-2-methyl-4-pyridyl]pyrazolo[1,5-a]pyridin-2-yl]cyclopropanecarboxamide] |  | 0.0356
Cc1cc(Nc2cc3cc(-c4cc(OC(F)F)ncc4OCC(C)(C)O)ccn3n2)nc(C)n1 [Example 679, 1-[[6-(difluoromethoxy)-4-[2-[(2,6-dimethylpyrimidin-4-yl)amino]pyrazolo[1,5-a]pyridin-5-yl]-3-pyridyl]oxy]-2-methyl-propan-2-ol] | 0.00319 | 
Cc1nccc(Nc2cc3cc(-c4cc(OC(F)F)ncc4OCC(C)(C)C#N)ccn3n2)n1 [Example 717, 3-[[6-(difluoromethoxy)-4-[2-[(2-methylpyrimidin-4-yl)amino]pyrazolo[1,5-a]pyridin-5-yl]-3-pyridyl]oxy]-2,2-dimethyl-propanenitrile] | 0.00142 | 
Cc1cc(-c2ccn3nc(Nc4cc(C)nc(C)n4)cc3c2)c(OC[C@@H]2CCN2C)cn1 [Example 521, N-(2,6-dimethylpyrimidin-4-yl)-5-[2-methyl-5-[[(2S)-1-methylazetidin-2-yl]methoxy]-4-pyridyl]pyrazolo[1,5-a]pyridin-2-amine] |  | 0.0607
Cn1ccc(Nc2cc3cc(-c4cc(C#N)cnc4OC[C@@H]4CNCCO4)ccn3n2)n1 [Example 564, 5-[2-[(1-methylpyrazol-3-yl)amino]pyrazolo[1,5-a]pyridin-5-yl]-6-[[(2S)-morpholin-2-yl]methoxy]pyridine-3-carbonitrile] | 0.00339 | 
Cc1cc(Nc2cc3cc(-c4cc(C(F)(F)F)ncc4OC[C@@]45CN[C@@H](CO4)C5)ccn3n2)nc(C)n1 [Example 252, N-(2,6-dimethylpyrimidin-4-yl)-5-[5-[[(1R,4R)-5-oxa-2-azabicyclo[2.2.1]heptan-4-yl]methoxy]-2-(trifluoromethyl)-4-pyridyl]pyrazolo[1,5-a]pyridin-2-amine] | 0.0284 | 
CC(C)(C#N)COc1cnc(OC(F)F)cc1-c1ccn2nc(Nc3cc4c(cn3)CCNC4)cc2c1 [Example 718, 3-[[6-(difluoromethoxy)-4-[2-(5,6,7,8-tetrahydro-2,6-naphthyridin-3-ylamino)pyrazolo[1,5-a]pyridin-5-yl]-3-pyridyl]oxy]-2,2-dimethyl-propanenitrile] | 0.0182 | 
Cc1cc(-c2ccn3nc(Nc4cc(C)nc(C)n4)cc3c2)c(OCC2CCS(=O)(=O)N2)cn1 (racemic) [Example 353, (rac-)-N-(2,6-dimethylpyrimidin-4-yl)-5-[5-[(1,1-dioxo-1,2-thiazolidin-3-yl)methoxy]-2-methyl-4-pyridyl]pyrazolo[1,5-a]pyridin-2-amine] |  | 0.0451
Cc1cc(Nc2cc3cc(-c4cc(O[C@@H](C)C#N)ncc4OCC(C)(C)C#N)ccn3n2)nc(C)n1 (single isomer, unassigned) [Example 681, (*S)-3-[[6-(1-cyanoethoxy)-4-[2-[(2,6-dimethylpyrimidin-4-yl)amino]pyrazolo[1,5-a]pyridin-5-yl]-3-pyridyl]oxy]-2,2-dimethyl-propanenitrile] | 0.0347 | 
CC(C)(C#N)COc1cnc(OC(F)F)cc1-c1ccn2nc(Nc3cc(N)cnn3)cc2c1 [Example 704, 3-[[4-[2-[(5-aminopyridazin-3-yl)amino]pyrazolo[1,5-a]pyridin-5-yl]-6-(difluoromethoxy)-3-pyridyl]oxy]-2,2-dimethyl-propanenitrile] | 0.0206 | 
CCN1CC[C@H]1COc1cnc(C)cc1-c1ccn2nc(NC(=O)C3CC3)cc2c1 [Example 605, N-[5-[5-[[(2S)-1-ethylazetidin-2-yl]methoxy]-2-methyl-4-pyridyl]pyrazolo[1,5-a]pyridin-2-yl]cyclopropanecarboxamide] |  | 0.316
Cc1cc(-c2ccn3nc(Nc4cnccn4)cc3c2)c(O[C@H]2C[C@H]3COC[C@@H](C2)N3C)cn1 [Example 418, 5-[2-methyl-5-[[(1S,5R,7s)-9-methyl-3-oxa-9-azabicyclo[3.3.1]nonan-7-yl]oxy]-4-pyridyl]-N-pyrazin-2-yl-pyrazolo[1,5-a]pyridin-2-amine] |  | < 0.000847
Cc1cc(-c2ccn3nc(NC(=O)C4CC4)cc3c2)c(OC[C@@H]2CCN2C)cn1 [Example 512, N-[5-[2-methyl-5-[[(2S)-1-methylazetidin-2-yl]methoxy]-4-pyridyl]pyrazolo[1,5-a]pyridin-2-yl]cyclopropanecarboxamide] |  | 0.0347
Cn1nc(Nc2cc3cc(-c4cc(OC(F)F)ncc4OCC(C)(C)C#N)ccn3n2)ccc1=O [Example 702, 3-[[6-(difluoromethoxy)-4-[2-[(1-methyl-6-oxo-pyridazin-3-yl)amino]pyrazolo[1,5-a]pyridin-5-yl]-3-pyridyl]oxy]-2,2-dimethyl-propanenitrile] | 0.00317 | 
CNC(=O)c1cccc(Nc2cc3cc(-c4cc(C)ncc4O[C@H]4C[C@H]5COC[C@@H](C4)N5)ccn3n2)n1 [Example 367, N-methyl-6-[[5-[2-methyl-5-[[(1S,5R,7s)-3-oxa-9-azabicyclo[3.3.1]nonan-7-yl]oxy]-4-pyridyl]pyrazolo[1,5-a]pyridin-2-yl]amino]pyridine-2-carboxamide] |  | 0.00681
Cc1cc(-c2ccn3nc(Nc4nn(C)cc4F)cc3c2)c(O[C@H]2C[C@H]3COC[C@@H](C2)N3C)cn1 [Example 118, N-(4-fluoro-1-methyl-1H-pyrazol-3-yl)-5-(2-methyl-5-(((1R,5S,7s)-9-methyl-3-oxa-9-azabicyclo[3.3.1]nonan-7-yl)oxy)pyridin-4-yl)pyrazolo[1,5-a]pyridin-2-amine] |  | < 0.000847

Continued, in another order:

IC50 [1] [µM] | SMILES | IC50 [µM]
0.0241 | Cc1cc(-c2ccn3nc(Nc4cc(C)nc(C(F)(F)F)n4)cc3c2)c(OCC(C)(C)O)cn1 [Example 537, 2-methyl-1-[[6-methyl-4-[2-[[6-methyl-2-(trifluoromethyl)pyrimidin-4-yl]amino]pyrazolo[1,5-a]pyridin-5-yl]-3-pyridyl]oxy]propan-2-ol] | 
0.166 | COc1cc(Nc2cc3cc(-c4cc(C)ncc4O[C@H]4CC[C@H](O)CC4)ccn3n2)cc(F)c1C(=O)NC1CC1 [Example 649] | 
0.0291 | Cc1cc(-c2ccn3nc(Nc4cc(C)nc(C)n4)cc3c2)c(OCC2(CO)COC2)cn1 [Example 274, [3-[[4-[2-[(2,6-dimethylpyrimidin-4-yl)amino]pyrazolo[1,5-a]pyridin-5-yl]-6-methyl-3-pyridyl]oxymethyl]oxetan-3-yl]methanol] | 
0.0246 | Cc1cc(-c2ccn3nc(NC(=O)C4CC4)cc3c2)c(OC[C@@]2(F)CCNC2)cn1 (single isomer, unassigned) [Example 447, (*R)—N-[5-[5-[(3-fluoropyrrolidin-3-yl)methoxy]-2-methyl-4-pyridyl]pyrazolo[1,5-a]pyridin-2-yl]cyclopropanecarboxamide] | 
0.0139 | Cc1cc(-c2ccn3nc(NC(=O)C4CC4)cc3c2)c(O[C@H]2CCNC2)cn1 [Example 277, N-[5-[2-methyl-5-[(3S)-pyrrolidin-3-yl]oxy-4-pyridyl]pyrazolo[1,5-a]pyridin-2-yl]cyclopropanecarboxamide] | 
0.202 | Cc1cc(-c2ccn3nc(NC(=O)C4CC4)cc3c2)c(OCC(C)(O)C2CC2)cn1 (single isomer, unassigned) [Example 603, (*S)—N-[5-[5-(2-cyclopropyl-2-hydroxy-propoxy)-2-methyl-4-pyridyl]pyrazolo[1,5-a]pyridin-2-yl]cyclopropanecarboxamide] | 
0.153 | Cc1cc(-c2ccn3nc(Nc4cc(C)nc(C)n4)cc3c2)c(OC[C@H]2CC3(CCCC3)CO2)cn1 (single isomer, unassigned) [Example 258, (*R)—N-(2,6-dimethylpyrimidin-4-yl)-5-[2-methyl-5-(8-oxaspiro[4.4]nonan-7-ylmethoxy)-4-pyridyl]pyrazolo[1,5-a]pyridin-2-amine] | 
0.0304 | Cc1cc(-c2ccn3nc(NC(=O)C4CC4)cc3c2)c(OC[C@@H](N)c2ccccc2)cn1 (single isomer, unassigned) [Example 467] | 
0.755 | CC(=O)N1CCO[C@H](COc2cnc(C)cc2-c2ccn3nc(Nc4cc(C)nc(C)n4)cc3c2)C1 [Example 628, 1-[(2S)-2-[[4-[2-[(2,6-dimethylpyrimidin-4-yl)amino]pyrazolo[1,5-a]pyridin-5-yl]-6-methyl-3-pyridyl]oxymethyl]morpholin-4-yl]ethanone] | 
0.00278 | Cc1cc(-c2ccn3nc(Nc4cc(C)nc(C)n4)cc3c2)c(OC[C@@H]2COC[C@H](O)C2)cn1 (single isomer, unassigned) [Example 351, (3*R, 5*S)-5-[[4-[2-[(2,6-dimethylpyrimidin-4-yl)amino]pyrazolo[1,5-a]pyridin-5-yl]-6-methyl-3-pyridyl]oxymethyl]tetrahydropyran-3-ol] | 
